What was measured:
Cotton = test: Post-emergent herbicidal test, cotton; format: in vivo; design: key: 1: no perceptible injury; 2: intermediate degrees of injury based upon the number and extent to which leaves were injured; 3: intermediate degrees of injury based upon the number and extent to which leaves were injured; 4: intermediate degrees of injury based upon the number and extent to which leaves were injured; 5: the plant was dead; details: 2500 parts per million, after ten days
Protocol: (§1) Suspensions of the test compounds were prepared by dissolving one gram of compound in 50 milliliters of acetone in which had been dissolved 0.1 gram (10 percent of the weight of compound) of an alkylphenoxyethoxyethanol surfactant, as an emulsifying or dispersing agent. The resulting solution was mixed into 160 milliliters of water to give roughly 200 milliliters of a suspension containing the compound in finely divided form. The thus prepared stock suspension contained 0.5 percent by weight of compound. The test concentrations employed in the tests described herein below were obtained by diluting the stock suspension with water. The test procedures were as follows:
(§2) Experiments were also conducted to determine the phytotoxicity of representative compositions with respect to healthy fresh plants. Solutions of the compounds were prepared as described above to provide a concentration of 2500 parts per million of the test compound. The test plants were sprayed in accordance with the procedure described above for the Mite Foliage Spray Test so as to deliver approximately 100 milliliters of test solutions to the leaves of each plant tested. The sprayed plants and controls were set aside for approximately one hour to allow the solutions to dry and were then placed in the greenhouse. After ten days the plants were visually inspected to determine the extent of foliage injury. A rating of 1 indicates no perceptible injury; 5 indicates the plant was dead and ratings of 2, 3 and 4 indicate intermediate degrees of injury based upon the number and extent to which leaves were injured.
(§3) Tests were conducted in accordance with the procedures given at pages 32 to 37 supra. The results are expressed in the same manner as used in Table I, except with respect to miticidal activity. For mite adult and mite egg comparison purposes, results are given in parts per million (ppm) required for a 50 percent kill of mites or eggs, respectively.

Mustard = test: Preliminary herbicide seed germination test (pre-emergent), mustard; format: in vivo, Brassica pincea var. foliosa (Florida broadleaf); design: key: 5: no seedling emerged; 4: few seedlings emerged and/or very severe stunting; 3: moderate reduction in stand and/or moderate stunting; 2: very slight reduction in stand and/or slight stunting; 1: no injury; seedlings appear no different with respect to stand or growth than untreated controls; details: ten to twelve days after application
Protocol: as §1
(§4) The following seeds were used in this test:
Mustard--Brassica pincea var. foliosa (Florida broadleaf)
(§5) Two soil-seed mixtures were prepared as follows:
Each of the above mixtures was rolled separately in 5 gallon containers for approximately one-half hour on ball mill to insure uniform mixing of seeds and soil. For each compound four 3-inch pots were filled with soil to within 11/2 inches of top of pots. To two of these pots were added 70 cc. of Mixture I. To the remaining 2 pots were added 70 cc. of Mixture II. The seed-soil mixture was tamped firmly, and the pots were removed to the green-house and watered lightly. About 2 hours after planting, 25 milliliters of the test formulation were added to one pot containing Mixture I and one pot containing Mixture II. An equal volume of a water solution containing acetone and an emulsifier in the same concentration as the herbicidal mixture but without the candidate herbicide was also added to each of the soil-seed mixtures. These pots are used as check or control units. The test compounds were formulated by diluting the stock suspension with water to obtain the desired concentration of the compound in parts per million of the final formulation. Each compound was tested at the same concentration. […] Ratings were made according to the following designations: […]

[1] = tested on: Red root pigweed (Amaranthus); test: Preliminary herbicide seed germination test (pre-emergent), Amaranthus; format: in vivo, Amaranthus retroflexus; design: key: 5: no seedling emerged; 4: few seedlings emerged and/or very severe stunting; 3: moderate reduction in stand and/or moderate stunting; 2: very slight reduction in stand and/or slight stunting; 1: no injury; seedlings appear no different with respect to stand or growth than untreated controls; details: ten to twelve days after application
Protocol: as §1, §4
Red root pigweed--Amaranthus retroflexus
as §5
(§6) Each of the above mixtures was rolled separately in 5 gallon containers for approximately one-half hour on ball mill to insure uniform mixing of seeds and soil. For each compound four 3-inch pots were filled with soil to within 11/2 inches of top of pots. To two of these pots were added 70 cc. of Mixture I. To the remaining 2 pots were added 70 cc. of Mixture II. The seed-soil mixture was tamped firmly, and the pots were removed to the green-house and watered lightly. About 2 hours after planting, 25 milliliters of the test formulation were added to one pot containing Mixture I and one pot containing Mixture II. An equal volume of a water solution containing acetone and an emulsifier in the same concentration as the herbicidal mixture but without the candidate herbicide was also added to each of the soil-seed mixtures. These pots are used as check or control units. The test compounds were formulated by diluting the stock suspension with water to obtain the desired concentration of the compound in parts per million of the final formulation. Each compound was tested at the same concentration. […] Ratings were made according to the following designations:
as §3

Perennial rye grass = test: Preliminary herbicide seed germination test (pre-emergent), rye grass; format: in vivo, Solium perenne; design: key: 5: no seedling emerged; 4: few seedlings emerged and/or very severe stunting; 3: moderate reduction in stand and/or moderate stunting; 2: very slight reduction in stand and/or slight stunting; 1: no injury; seedlings appear no different with respect to stand or growth than untreated controls; details: ten to twelve days after application
Protocol: as §1, §4
Perennial rye grass--Solium perenne
as §5, §6, §3

Corn = test: Post-emergent herbicidal test, corn; format: in vivo; design: key: 1: no perceptible injury; 2: intermediate degrees of injury based upon the number and extent to which leaves were injured; 3: intermediate degrees of injury based upon the number and extent to which leaves were injured; 4: intermediate degrees of injury based upon the number and extent to which leaves were injured; 5: the plant was dead; details: 2500 parts per million, after ten days
Protocol: as §1, §2, §3

Bean = test: Post-emergent herbicidal test, bean; format: in vivo; design: key: 1: no perceptible injury; 2: intermediate degrees of injury based upon the number and extent to which leaves were injured; 3: intermediate degrees of injury based upon the number and extent to which leaves were injured; 4: intermediate degrees of injury based upon the number and extent to which leaves were injured; 5: the plant was dead; details: 2500 parts per million, after ten days
Protocol: as §1, §2, §3

Soybean = test: Post-emergent herbicidal test, soybean; format: in vivo; design: key: 1: no perceptible injury; 2: intermediate degrees of injury based upon the number and extent to which leaves were injured; 3: intermediate degrees of injury based upon the number and extent to which leaves were injured; 4: intermediate degrees of injury based upon the number and extent to which leaves were injured; 5: the plant was dead; details: 2500 parts per million, after ten days
Protocol: as §1, §2, §3

Compound	Post-Emergent Herbicidal, Cotton (injury rating) (Cotton; Table I)	Pre-emergent Herbicidal, Mustard (injury rating) (Mustard; Table I)	Pre-emergent Herbicidal, Amaranthus (injury rating) ([1]; Table I)	Pre-emergent Herbicidal, Rye (injury rating) (Perennial rye grass; Table I)	Post-Emergent Herbicidal, Corn (injury rating) (Corn; Table I)	Post-Emergent Herbicidal, Bean (injury rating) (Bean; Table I)	Post-Emergent Herbicidal, Soybean (injury rating) (Soybean; Table I)	Post-Emergent Herbicidal, Cotton (injury rating) (Cotton; Table II)	Pre-emergent Herbicidal, Mustard (injury rating) (Mustard; Table II)	Pre-emergent Herbicidal, Amaranthus (injury rating) ([1]; Table II)	Pre-emergent Herbicidal, Rye (injury rating) (Perennial rye grass; Table II)	Post-Emergent Herbicidal, Corn (injury rating) (Corn; Table II)	Post-Emergent Herbicidal, Bean (injury rating) (Bean; Table II)	Post-Emergent Herbicidal, Soybean (injury rating) (Soybean; Table II)
Cc1ccc(C)c(C2C(=O)CC(C)C2=O)c1 (stereo not drawn) [CH3 H CH3 CH3 H, 2-(2',5'-Dimethylphenyl)-4-methyl-1,3-cyclopentanedione]	2	2	3	4	3	2	2	–	–	–	–	–	–	–
Cc1ccc(C)c(C2C(=O)CCC2=O)c1 [CH3 H CH3 H H]	2	2	3	4	2	2	3	–	–	–	–	–	–	–
Cc1ccc(C2C(=O)C3CCCCC3C2=O)c(C)c1 (stereo not drawn) [CH3 CH3 H (CH2)4, 2-(2',4'-dimethylphenyl)-4,5,6,7,8,9-hexahydro-1,3-indandione]	2	5	5	5	2	1	5	2	5	5	5	2	1	1
Cc1ccccc1C1C(=O)C2CCCCC2C1=O (stereo not drawn) [CH3 H H (CH2)4, 2-(2'-Methylphenyl)-4,5,6,7,8,9-hexahydro-1,3 indandione]	3	2	3	5	2	2	1	3	2	3	5	2	2	1
Cc1ccc(C)c(C2C(=O)c3ccccc3C2=O)c1 [Reference II Page 146, Compound 6, reference compound]	–	–	–	–	–	–	–	1	1	1	1	1	1	0
Cc1ccccc1C1C(=O)c2ccccc2C1=O [Reference I Page 3, Compound 1, reference compound]	–	–	–	–	–	–	–	1	1	2	1	1	2	0
Cc1ccc(C2C(=O)c3ccccc3C2=O)c(C)c1 [Reference II Page 146, Compound 9, reference compound]	–	–	–	–	–	–	–	1	2	3	4	1	1	0
O=C1CCC(=O)C1c1ccccc1Cl [Cl H H H H]	2	3	1	5	2	3	1	–	–	–	–	–	–	–
Cc1ccc(C2C(=O)CCC2=O)c(C)c1 [CH3 CH3 H H H, 2-(2',4'-dimethylphenyl)-1,3-cyclopentanedione]	1	3	5	5	2	1	1	1	3	5	5	2	1	1
O=C1CCC(=O)C1c1ccc(Cl)cc1Cl [Cl Cl H H H, 2-(2',4'-Dichlorophenyl)-1,3-cyclopentanedione]	2	1	1	1	1	1	1	–	–	–	–	–	–	–
Cc1ccc(C)c(C2C(=O)C3CCCCC3C2=O)c1 (stereo not drawn) [CH3 H CH3 (CH2)4, 2-(2',5'-dimethylphenyl)-4,5,6,7,8,9-hexahydro-1,3-indandione]	1	1	1	1	1	1	1	1	1	1	1	1	1	1

Reference: patent US4338122A, “Biocidal 2-aryl-1,3-cyclopentanedione compounds and alkali metal and ammonium salts thereof” (Union Carbide Corporation, priority 1980, dated 1982)
